Patent publication US20210239681A1, “COMPOSITIONS AND METHODS FOR […] OF […]-BASED IMMUNOTHERAPEUTICS” (ADVAXIS, INC., priority 2018, published 2021)

How the values were obtained:
Assay type in all cases: cell-based, human
THP-1 cells [1] = test: Cytokine production by THP-1 in the absence of T cells; details: Without gentamicin; Listeria MOI of 10; optical density
THP-1 cells [2] = test: as above; design: IL-6: unit not given here
Procedure: (§1) Analysis Kits and Reagents: Analysis of cytokine concentrations in culture medium used the U-plex assay kits from Meso Scale Discovery. Expression of T cell receptors specific for E7 peptide bound to HLA-A*02:01 was detected using HLA-A*02:01/peptide tetramers from MBL International (Woburn, Mass.).
Infection of THP-1: The THP-1 cell line was infected with either ADXS11-001 or XFL7 by incubating 10^6 cells with dilutions of bacteria in a 1 mL volume of RPMI 1640 10% FBS. […] After incubation with gentamicin the cells were washed again and resuspended to the desired cell concentration.
(§2) T cell cytokine expression analysis. An initial experiment using THP-1 as antigen presenting cells was performed using a T cell culture containing 6% E7 (11-20) specific T cells based upon staining with HLA-A*02:01/peptide tetramer. THP-1 cells were infected as described using two different concentrations of bacteria and then co-cultured with the T cells. Controls included uninfected THP-1 cells and THP-1 cells incubated with (exposed to) either the 9mer or 10mer peptide for one hour. After an overnight co-culture, medium was collected for analysis of cytokines.
(§3) To further explore the importance of the overnight incubation of infected THP-1, THP-1 cells infected overnight were compared to THP-1 cells infected for 2 hours. T cells specific for 9mer and 10mer peptides were co-cultured with each of the THP-1 cells and with uninfected or peptide exposed THP-1. As before, medium was collected after an overnight co-culture and cytokines were measured.
Titration studies with different multiplicity of infection (MOI). THP cells were infected for 2 hours with 3 different dilutions (MOI) of Listeria. Infected or uninfected THP cells were then cultured overnight for 24 hours before co-culturing the T cells. Cells were co-cultured overnight before cytokine analysis.

9mer specific T cells = test: Co-culture of THP-1 with 9mer specific T cells, cytokine production; design: IFNγ / IL-10 / IL-12p70 / IL-13 / IL-1β / IL-2 / IL-5 / IL-6 / TNF-α: unit not given here; details: for IFNγ production, with 9mer specific T cells: Listeria MOI of 10, optical density
Excerpt: as §1
(§4) There were several possible explanations for the muted response with THP-1 cells infected with ADSX11: including failure of THP-1 cells to process the 10mer epitope from full length E7 protein, failure of the THP-1 cells to present the processed 10mer E7 peptide on HLA-A*02:01, insufficient incubation of the infected cells to allow synthesis of the E7 protein and accumulation of the MHC/peptide complex on the cell surface, and/or an inhibitory effect of gentamicin. A culture of T cells specific for the 9mer epitope was used as well as a new culture of 10mer specific T cells. The THP-1 cells were infected as before with XFL7 or ADXS11-001 at an MOI of 10. After treatment with gentamicin for one hour, the cells were cultured overnight in the absence of gentamicin. The next day the infected cells were collected and co-cultured with 9mer or 10mer specific T cells. These co-cultures were set up in standard X-VIVO 15 and X-VIVO 15 without gentamicin or phenol red. The co-cultures were incubated overnight before collecting medium for cytokine analysis. The medium was tested for IFNγ concentrations and optical density. […] In addition, the 10mer specific T cells recognized ADXS11-001 infected THP-1 when there was no gentamicin in the medium.
as §3
(§5) Optimization of infection time required for E7 presentation. THP-1 infected and cultured overnight compared to THP-1 infected for 2 hours and used after gentamicin treatment. Both 9-mer specific T cells and 10-mer specific T cells used. Assays were performed using X-VIVO 15 medium without gentamicin. The following cytokines were measured: IFNγ, IL-1β, IL-2, IL-10, IL-12p70, IL-13, IL-5, IL-6, TNFα.

10mer specific T cells = test: Co-culture of THP-1 with 10mer specific T cells, cytokine production; design: IFNγ / IL-10 / IL-13 / IL-1β / IL-2 / IL-5 / IL-6 / TNF-α: unit not given here; details: for IFNγ production, with 10mer specific T cells: Listeria MOI of 10, optical density
Excerpt: as §1, §4, §3, §5

PBMC = test: Cytokine release by donor PBMC cultured with peptide; design: unit not given beside the values; details: release on antigen
Procedure: Peripheral blood mononuclear cells (PBMCs) samples were collected from three human HLA-A*02:01 donors: 358, 213, and 224. The peripheral blood mononuclear cells (PBMCs) were cultured with one of two E7 peptides: […] (9mer or 1T; SEQ ID NO: 100) or […] (10mer or 2T; SEQ ID NO: 101). After 10 days culture, the PBMCs were tested for E7 peptide binding staining and cytokine release.

[3] = system: E7 (11-20) specific T cells; test: Initial THP-1 / T cell co-culture cytokine production (T cell culture with 6% E7 (11-20) specific T cells); design: IFNγ / TNF-α / IL-10 / IL-12p70 / IL-13 / IL-1β / IL-2 / IL-4 / IL-6 / IL-8: unit not given here; details: T cells and THP-1 incubated with peptide one hour; overnight co-culture
Procedure: as §1
Infection of THP-1: The THP-1 cell line was infected with either ADXS11-001 or XFL7 by incubating 10^6 cells with dilutions of bacteria in a 1 mL volume of RPMI 1640 10% FBS. Incubation with bacteria was at 37° C., 5% CO2 for the indicated times, then extracellular bacteria were eliminated by washing and incubation in the presence of 50 μg/mL gentamicin for 1 hour at 37° C. After incubation with gentamicin the cells were washed again and resuspended to the desired cell concentration.
as §2

T cells = test: Intracellular cytokine staining of T cells; details: Brefeldin A, FIG. 9
Procedure: (§6) To identify cytokines that can be used to measure potency of a Listeria-based therapeutic the following tests were performed. Intracellular cytokine staining was used to detect T cells specificity. THP-1 were incubated with peptide overnight, mixed with T cells from above and centrifuged. The collected cells were then co-cultured at 37° C. for 1 hour. Brefeldin A was then added and the cells were co-cultured for another 4 hours. Brefeldin A inhibits secretion and permits analysis by flow cytometry. Cell were then stained to identify dead cells and CD8+ cells. The cell were then fixed and stained for IFNγ (using fix and permeabilization buffer from eBioscience/Invitrogen).

THP-1 cells [4] = test: Intracellular cytokine staining of THP-1 cells; details: FIGS. 3A-3C, FIG. 10
Procedure: as §6
Intracellular cytokine staining of THP-1 cells.

[5] = THP-1 incubated with peptide, absence of T cells
[6] = 9mer T cells + peptide exposed THP-1, overnight co-culture
[7] = 10mer T cells + peptide exposed THP-1, overnight co-culture

Substance: YMLDLQPET [9mer]
- IFNγ production, THP-1 alone (THP-1 cells [1]): 0.059
- IFNγ production, THP-1 alone (THP-1 cells [2]; 50 μg/mL gentamicin, Listeria MOI of 10, optical density): 0.064
- IFNγ (THP-1 cells [2]; THP-1 alone, peptide exposed): <LLOD
- IL-1β (THP-1 cells [2]; THP-1 alone, peptide exposed): <LLOD
- IL-2 (THP-1 cells [2]; THP-1 alone, peptide exposed): <LLOD
- IL-5 (THP-1 cells [2]; THP-1 alone, peptide exposed): <LLOD
- IL-6 (THP-1 cells [2]; THP-1 alone, peptide exposed): <LLOD
- IL-10 (THP-1 cells [2]; THP-1 alone, peptide exposed): <LLOD
- IL-12p70 (THP-1 cells [2]; THP-1 alone, peptide exposed): <LLOD
- IL-13 (THP-1 cells [2]; THP-1 alone, peptide exposed): <LLOD
- TNF-α (THP-1 cells [2]; THP-1 alone, peptide exposed): 0
- IFNγ (THP-1 cells [2]; [5]): <LLOD
- IL-1β (THP-1 cells [2]; [5]): 0.0
- IL-2 (THP-1 cells [2]; [5]): <LLOD
- IL-4 (THP-1 cells [2]; [5]): <LLOD
- IL-6 (THP-1 cells [2]; [5]): <LLOD
- IL-8 (THP-1 cells [2]; [5]): 7.3
- IL-10 (THP-1 cells [2]; [5]): <LLOD
- IL-12p70 (THP-1 cells [2]; [5]): <LLOD
- IL-13 (THP-1 cells [2]; [5]): <LLOD
- TNF-α (THP-1 cells [2]; [5]): <LLOD
- IFNγ production, with 9mer specific T cells (9mer specific T cells; 50 μg/mL gentamicin): 0.177
- IFNγ (9mer specific T cells; [6]): 4713
- IL-1β (9mer specific T cells; [6]): 0
- IL-2 (9mer specific T cells; [6]): 18
- IL-5 (9mer specific T cells; [6]): 0
- IL-6 (9mer specific T cells; [6]): 13
- IL-10 (9mer specific T cells; [6]): 1
- IL-12p70 (9mer specific T cells; [6]): 0
- IL-13 (9mer specific T cells; [6]): 3
- TNF-α (9mer specific T cells; [6]): 74
- IFNγ production, with 9mer specific T cells (9mer specific T cells; Without gentamicin): 0.117
- IFNγ production, with 10mer specific T cells (10mer specific T cells; 50 μg/mL gentamicin): 0.063
- IFNγ (10mer specific T cells; [7]): 103
- IL-1β (10mer specific T cells; [7]): <LLOD
- IL-2 (10mer specific T cells; [7]): <LLOD
- IL-5 (10mer specific T cells; [7]): <LLOD
- IL-6 (10mer specific T cells; [7]): <LLOD
- IL-10 (10mer specific T cells; [7]): 0
- IL-12p70 (10mer specific T cells; [7]): <LLOD
- IL-13 (10mer specific T cells; [7]): <LLOD
- TNF-α (10mer specific T cells; [7]): <LLOD
- IFNγ production, with 10mer specific T cells (10mer specific T cells; Without gentamicin): 0.062
- IFNγ Mean (PBMC; donor 213 PBMC cultured with 1T peptide): 242.6
- IFNγ Mean (PBMC; donor 358 PBMC stimulated with 1T): 1642.7
- IFNγ Mean (PBMC; donor 358 PBMC stimulated with 2T): 352.4
- IFNγ [3]: 1508.2
- IL-1β [3]: 1.0
- IL-2 [3]: 3.7
- IL-4 [3]: 0.2
- IL-6 [3]: 4.2
- IL-8 [3]: 405.7
- IL-10 [3]: 2.1
- IL-12p70 [3]: <LLOD
- IL-13 [3]: 120.3
- TNF-α [3]: 57.1
- IFNγ in T cells after stimulation with peptide (T cells): detected
- Basal IFNγ in THP-1 cells after stimulation with peptide (THP-1 cells [4]): not detectable

Substance: gentamicin
- effect of gentamicin in the culture medium on antigen presentation (10mer specific T cells; Listeria-based infection of THP-1, 50 μg/mL): inhibits expression of E7 or antigen presentation
